One assay relates to Interleukin 8. Kind of assay: release of Interleukin 8 by keratinocytes NHK stimulated with PMA + calcium ionophore A23187 (ELISA). The assay is classed as cell-based, human. To be noted: 3 μg/ml, keratinocytes, PMA + A23187 6 hours. How it is done: In this study, carried out using 96 well plates, we evaluated the activity of hydroxyl alkine acids on the production of Interleukin 8 produced in the keratinocytes by phorbol ester PMA and calcium ionophore A23187.
A suspension of keratinocytes in supplemented KSFM was divided between 96 well plates (3.10^4 cells/wells) and incubated for 16 hours at 37° C. under an atmosphere of 5% CO2. The keratinocytes were then rinsed with PBS in order to eliminate non adhering cells then exposed to the products to be tested included in non supplemented KSFM (which could interfere with the assay).
The concentration tested in culture was 3 μg/ml. This was retained after a preliminary test to evaluate cytotoxicity (neutral red) and is not cytotoxic.
3 wells were used for each treatment. Cells were preincubated for 60 minutes with the products to be tested then stimulated, in parallel to negative controls without stimulant: Phorbol Myristate Acetate (PMA) 1 μm+Calcium ionophore (A23187) 0.1 μm.
Incubation for 6 hours at 37° C. in a humid air atmosphere containing 5% CO2.
The culture medium for each of the wells was recovered, centrifuged at 3000 rpm and stored at −80° C.
Cytokine assay: IL8 was assayed using the ELISA kit immunoenzyme method (immunotech).
The results are given as percentage activity/stimulated control.
The compounds according to the invention were evaluated in terms of anti-inflammatory activity on the release of Interleukin 8 by human keratinocytes NHK stimulated by phorbol ester PMA+calcium ionophore A23187.
In general terms: In an ELISA, binding on a coated surface is turned into a signal by an enzyme label.

A further assay concerns prostaglandin 6KF1α. Kind of assay: production of prostaglandin 6KF1α by keratinocytes stimulated with calcium ionophore A23187 (ELISA). The assay is classed as cell-based. To be noted: 3 μg/ml, A23187 1 μm 5 hours. How it is done: A suspension of keratinocytes in DMEM 10% foetal calf serum was divided into 6 well plates (1.2. 106cells/wells) and incubated for 16 hours at 37° C. in a 5% CO2 atmosphere. The keratinocytes were then rinsed with PBS in order to eliminate non adhering cells then exposed to the products to be tested included in DMEM without foetal calf serum (which could interfere with the assay).
The concentration tested in culture was 3 μg/ml. This was retained as the test concentration after a preliminary evaluation test for cytotoxicity (neutral red) and is not cytotoxic.
For each treatment, three wells were tested. Cells were pre-incubated for 60 minutes with the products to be tested then a stimulating agent was added to stimulate the arachidonic acid cascade (calcium ionophore) which was added for 5 hours: calcium ionophore A23187 was used at a concentration of 1 μm.
After 5 hours in culture, the culture medium for each well was recovered, centrifuged at 3000 rpm and stored at −80° C.
The production of prostaglandin 6KF1α for each of the tests was measured using a EUROMEDEX Elisa Kit.
Results are expressed as the percentage activity/stimulated control.

In assay [1] the test system is intracellular AOSs, fibroblast line L929. Kind of assay: in vitro assay of intracellular AOSs (H2DCF-DA probe) after H2O2/iron oxidative stress. Type of assay: cell-based, murin. As to conditions: 400 μg/ml, pre-incubation 3 h, L929, 18 tests. The source says:
We set up an in vitro study model of oxidative stress induced by H2O2/iron as H2O2 generates huge amounts of intracellular AOSs as a result of a chain reaction triggered by oxidation of membrane lipids.
This technique is based on the use of a fluorescent probe, 6-carboxy-2′,7′-dichlorodihydro fluorescein diacetate, di (acetoxymethyl ester) (H2DCF-DA) which once it penetrates into the cell is deacetylated by intracellular esterases and thus forms H2DCF. This product is oxidized by intracellular AOSs into a highly fluorescent compound: 2′,7′-dichlorofluorescein (DCF) (Suematsu M et al., 1996, Free Radicals Practical Approach, Punchard ed. P 83-99).
The materials and methods used for in vitro assay of intracellular AOSs are given below. • a) Cell tool • Cutaneous murin fibroblast cell line L929. • b) Materials • 96 well flat based microplate. • Cytofluor II cytofluorameter: Ref. PERCEPTIVE BIOSYSTEMS. • c) Reagents • Cell culture reagents: • Dulbecco's Modified Eagle Medium as the culture medium (DMEM) • Foetal calf serum • Phosphate buffer PBS pH 7.4 • Trypsin EDTA (1X) Fluorescent probe • 6-carboxy-2′,7′-dichlorodihydrofluorescein diacetate, di(acetoxymethyl ester) (PM.675,43) Cell stimulation products • Hydrogen peroxide (H2O2) 3% Ref. GIFRER (Gifrer Barbezat Laboratory) • Ferrous ammonium sulphate (Fe^2+) • Ferric ammonium sulphate (Fe^3+) • d) Products tested:
For the evaluation of unsaturated fatty hydroxy acid derivatives, the dilutions are prepared in freshly prepared culture medium for a concentration range of 0.02, 0.2, 2 and 20 ng/ml. • e) Protocol. Cell culturing.
Cells from the fibroblast line L929 were cultured in 96-well flat base microplates in 100 μl of DMEM supplemented with 10% foetal calf serum. These were incubated overnight at 37° C. in a humid atmosphere at 5% CO2. The blank plate without cells was evaluated using 6 wells.
Dilutions of the products to be tested and reference molecule were made up in culture medium without foetal calf serum then deposited in 7 wells at a rate of 100 μl per well.
Cells were then incubated for 3 hours at 37° C. in a humid atmosphere at 5% CO2.
Cells were rinsed in PBS 1X at a rate of 100 μl per well. They were then incubated for 30 minutes at 37° C. in a humid atmosphere at 5% CO2 with 50 μl of the H2DCF-DA probe at 5 μM.
After 30 minutes of contact with the probe alone, cells were incubated for 30 minutes at 37° C. in a humid atmosphere at 5% CO2 with the addition of 25 μl of H2O2 at 800 μM and 25 μl of ferrous iron and ferric iron solution at 8 mM in order to obtain final concentrations of 200 μM of H2O2 and 2 mM of ferrous iron and ferric iron.
Cells were then rinsed with PBS 1X at a rate of 100 μl per well then incubated for 30 minutes at 37° C. in a humid atmosphere at 5% CO2 with 100 μl of PBS 1X.
This incubation for 1 h 30 minutes at 37° C. allows intracellular esterases to deacetylate the probe into H2DCF which can be oxidized by the intracellular AOSs into DCF: a fluorescent compound whose formation is proportional to the quantity of intracellular AOSs.
The intensity of fluorescence is read on a cytofluorimeter at λexcitation=485 nm and λemission=530 nm. This reflects the amount of intracellular AOS produced.
The ratio below makes it possible to calculate the % protection against the production of intracellular AOSs for each product concentration tested (because the intensity of fluorescence or IF reflects the release of intracellular AOSs)
• Pre-incubation: 3 h • Number of tests=3 for all compounds. • Number of tests=18 for vit. E

Assay [2] relates to membrane lipids, fibroblast line L929. Kind of assay: TBARS test, lipid peroxidation after H2O2/Fe2+/Fe3+. The assay is classed as cell-based, murin. To be noted: 400 μg/ml.
Assay [3] concerns murine melanome cell line B16-F10. Kind of assay: melanin synthesis, colorimetric assay, basal and after α-MSH. The assay is classed as cell-based. As to conditions: Mus musculus, alpha MSH 1 μM, read-out: inhibition of alpha MSH activity (melanin increase). The procedure: The modulating effect of unsaturated fatty hydroxy acid derivatives on melanogenesis was analysed. To do this, measurement of melanin synthesis by colorimetric assay was performed on a murine melanome cell line: line B16-F10.
The effect of products was investigated in a basal situation and after stimulation by α-MSH in order to determine depigmenting capacity.
Levels of extracellular and intracellular melanin were measured by spectrophotometry at a wavelength of 405 nm according to the protocol described by Anob et al., 1999. The amount of pigment was determined using a standard melanin range and analysis on Microwin software (Berthold Biotechnologies). A total protein assay was carried out for intracellular melanin samples by means of the BCA-Copper method at 540 nm. The standard range was made up using standard protein BSA (Bovine Serum Albumin).

Molecules are shown by their SMILES.

For the compound `O=C(O)/C=C/CCCCCCCCCO` [n=8, R=H, Rn=H, R1=H, 12-hydroxy-dodeca-2t-enoic acid], the “% inhibition of IL-8 release” value with Interleukin 8 is listed as “Non-active”. For the same compound, the “% inhibiting activity of evaluated molecules on the production of PG6KF1α Inflammation” value in the assay on prostaglandin 6KF1α is 32%.
`Cc1c(C)c2c(c(C)c1O)CC[C@@](C)(CCC[C@H](C)CCC[C@H](C)CCCC(C)C)O2` [Vit. E, alphatocopherol]: the “Percentage inhibition of the intracellular production of AOS” value in assay [1] is “Vit. E 400 μg/ml 47%”. Moreover, the entries for the “% membrane lipid protection, Mean” value in assay [2] and in assay [2] (listed as Vitamin E) were 44.66% and “protects cell membranes very effectively”, respectively.
A word on the inhibition: it is the relative decrease from the control value, in per cent. With `Oc1ccc(O)cc1` [hydroquinone], the inhibition at 1 µg/mL in assay [3] (1 μg/ml) is 60%.
For `O=C1O[C@H]([C@@H](O)CO)C(O)=C1O` [vitamin C], the inhibition at 40 µg/mL in assay [3] (40 μg/ml) was found to be 60%.

For the origin of these results see US8158811B2, “Unsaturated fatty hydroxy acid derivatives and the dermocosmetologic use thereof” (Pierre Fabre Dermo-Cosmetique, priority 2005, dated 2012).
